Experimental findings from ChEMBL document CHEMBL3351643, “A potent cyclic peptide targeting SPSB2 protein as a potential anti-infective agent” (J Med Chem, 2014) are described below.

For series [1], the target named is T1, SPRY domain-containing SOCS box protein 2 (Homo sapiens, UniProt Q99619).
T1 sequence (Q99619 whole entry): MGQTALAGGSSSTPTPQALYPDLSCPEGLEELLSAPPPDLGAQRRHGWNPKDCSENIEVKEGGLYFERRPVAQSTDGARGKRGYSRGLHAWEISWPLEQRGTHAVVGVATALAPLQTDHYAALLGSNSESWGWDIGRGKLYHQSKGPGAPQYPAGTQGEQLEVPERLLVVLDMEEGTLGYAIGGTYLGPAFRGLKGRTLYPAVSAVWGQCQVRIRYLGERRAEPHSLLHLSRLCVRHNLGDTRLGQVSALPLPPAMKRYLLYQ
Briefly: Binding affinity to GST-tagged SPSB2 (unknown origin) expressed in Escherichia coli BL21 (DE3) by SPR assay. A general note: Surface plasmon resonance follows binding to a sensor surface in real time, without labels.

For series [2], the target named is T2, SPRY domain-containing SOCS box protein 2 (Mus musculus) (UniProt O88838).
T2 sequence (whole entry): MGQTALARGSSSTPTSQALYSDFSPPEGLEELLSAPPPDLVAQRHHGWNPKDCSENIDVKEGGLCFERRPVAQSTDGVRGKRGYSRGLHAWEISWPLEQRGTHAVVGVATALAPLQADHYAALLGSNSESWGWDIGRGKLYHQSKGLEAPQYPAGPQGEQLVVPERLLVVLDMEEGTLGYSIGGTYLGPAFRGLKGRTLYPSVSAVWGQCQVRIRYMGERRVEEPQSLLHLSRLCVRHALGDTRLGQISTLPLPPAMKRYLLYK
In words: Displacement of full-length of iNOS from SPSB2 in LPS/IFNgamma-stimulated mouse BMDM cell lysate at 10 uM after 2 hrs by Western blotting analysis. The format is cell-free. A general note: A western blot detects proteins with antibodies after separation by electrophoresis.

Series [3] in a line: Stability of the compound assessed as pepsin (unknown origin)-mediated drug degradation at 200:1 peptide to enzyme ratio after 24 to 96 hrs by RP-HPLC analysis. The format is ADME. To be noted: human.
Series [4] in a line: Stability of the compound assessed as trypsin (unknown origin)-mediated drug degradation at 200:1 peptide to enzyme ratio after 24 to 96 hrs by RP-HPLC analysis. To be noted: human. In kind it is ADME.
Series [5] in a line: Stability of the compound assessed as alpha-chymitrypsin (unknown origin)-mediated drug degradation at 200:1 peptide to enzyme ratio after 24 to 96 hrs by RP-HPLC analysis. The format is ADME. To be noted: human.
The nature of series [6]: Stability of the compound in 1 mM DTT at 0.5 mg/ml after 15 mins by redox stability/RP-HPLC assay. In kind it is physicochemical. Particulars: 0.25 h.
A short description of series [7]: Stability of the compound in 1:1 ratio of DTT:H2O2 at 0.5 mg/ml after 1 hr by redox stability/RP-HPLC assay. In kind it is physicochemical. Particulars: 1:1 DTT:H2O2; read-out: Stability.
A short description of series [8]: Stability of the compound in 1:10 ratio of DTT:H2O2 at 0.5 mg/ml after 1 hr by redox stability/RP-HPLC assay. The format is physicochemical.
Series [9] is described as follows: Stability in human plasma assessed as compound remaining at 50 uM after 24 hrs by RP-HPLC analysis. In kind it is ADME, cell-free. To be noted: read-out: Stability.

Calls of active or inactive are those of the source. The calls are words filed in the database; no cut-off is given here. Where a SMILES comes first, the peptide text is derived from it. Bridges are numbered along the chain shown (N, C = ends).

The Kd is the equilibrium constant for the complex coming apart. On to `CC[C@H](C)[C@H](NC(=O)[C@H](CC(=O)O)NC(=O)[C@@H](NC(=O)[C@H](CS)NC(C)=O)C(C)C)C(=O)N[C@@H](CC(N)=O)C(=O)N[C@@H](CC(N)=O)C(=O)N[C@@H](CC(N)=O)C(=O)N[C@@H](CS)C(N)=O` (Ac-CVDINNNC-NH2), for which the Kd in series [1] was found to be 35.1 nM. In [2], the inhibition entry is “Active”. For the same compound, the Stability result is reported as “Stable” in series [3]; “Stable” in series [4]; “Stable” in [5]; “Unstable” in [6]; “Stable” in [8]. The remaining at 1 h, 0.5 mg/ml in [7] turned out to be 55%.
Regarding Ac-KEEKDINNNVKKT-NH2, the Stability entry in series [3] was “Unstable”. Moreover, the remaining at 24 h, 50 µM in [9] was determined as 83%.
In [1], Ac-DINNN-NH2 yielded a Kd of 318 nM.
Still for that read-out and setting: the value for `CC[C@H](C)[C@@H]1NC(=O)[C@H](CC(=O)O)NC(=O)[C@H](C(C)C)NC(=O)[C@@H](NC(C)=O)CSSC[C@@H](C(N)=O)NC(=O)[C@H](CC(N)=O)NC(=O)[C@H](CC(N)=O)NC(=O)[C@H](CC(N)=O)NC1=O` (Ac-CVDINNNC-NH2; disulfide 1-8) was 4.4 nM.
